Here are results for seven compounds from ChEMBL document CHEMBL1201862, “PubChem BioAssay data set” (2004).

Activity calls are given as the source filed them. A value given as a limit tells only on which side of the number the result lay.

The test system of assay [1] is HEK293. The assay is described as follows: cytotoxicity in HEK293T NF-kB-Luc cells, SAR follow-up, cytotoxicity control for NF-kB activator project, cell-based, resazurin fluorescence (AID 493251). The class given is functional. The conditions noted are these: Homo sapiens. In general terms: Alamar Blue is a resazurin reagent that responds to reducing activity.
Assay [2] concerns Jurkat. The assay is described as follows: SAR Analysis of small molecule inhibitors of T-cell specific antigen receptor-induced NF-kB activation in a Jurkat cell line using a luminescence assay - Set 2. [Related pubchem assays (depositor defined):AID435003, AID435012, AID465]. The format is functional, cell-based. The conditions noted are these: Homo sapiens.
The test system of assay [3] is HEK293. The assay is described as follows: SAR Analysis of small molecule inhibitors of T-cell specific antigen receptor-induced NF-kB activation in a HEK-293T cell line using a luminescence assay - Set 2. [Related pubchem assays (depositor defined):AID435003, AID435012, AID489026]. The class given is functional, cell-based. The conditions noted are these: Homo sapiens.

Assay [4] is described as follows: insulin promoter down-regulators in MIN6 cells, imaging, high-content screening, mouse beta cells (AID 1628). The format is functional.
The nature of assay [5]: cytotoxicity in MIN6 insulinoma cells, dose response, cytotoxicity control, cell-based, mouse insulinoma (AID 2122).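 Note: confirmatory high-throughput counterscreen run to flag cytotoxic compounds; mouse MIN-6 beta cells carrying an insulin promoter eGFP reporter.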 The class given is functional.
Assay [6] in a line: inhibitors of intracellular T. cruzi replication, confirmation, NIH3T3 host cells, beta-gal luminescence (AID 2044).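 Note: intracellular parasites grown in NIH/3T3 mouse fibroblasts as host cells; luminescent beta-galactosidase reporter signal from transgenic T. cruzi replicating inside host cells; inhibitors lower the luminescence signal.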 The format is functional, cell-based.
Assay [7] can be described thus: cytotoxicity toward NIH3T3 fibroblasts, dose response, counter-screen, cell-based, ATP luminescence, mouse fibroblasts (AID 2010).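 Note: cells exposed to compound for about 90 hours before reading.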 The class given is functional.
In assay [8] the test system is Candida albicans. Kind of assay: growth inhibition of resistant C. albicans, dose response, CaCi-8 strain, fluconazole, dry powder, set 4 (AID 488950). The class given is functional, organism-based.
Assay [9] deals with Candida albicans. Kind of assay: fluconazole resistance reversal in C. albicans, dose response, CaCi-2 strain, Alamar Blue, dry powder, set 4 (AID 488943). The class given is functional, organism-based.
The test system of assay [10] is Candida albicans. The assay is described as follows: growth inhibition of resistant C. albicans, dose response, CaCi-8, fluconazole, Alamar Blue, dry powder (AID 488807). The class given is functional, organism-based.
A further assay deals with NIH3T3. The assay is described as follows: cytotoxicity in NIH-3T3 fibroblasts, dose response, cytotoxicity control for antifungal drug resistance project, cell-based, Alamar Blue, fluconazole, dry powder (AID 488809). The class given is functional. The conditions noted are these: Mus musculus.
For assay [11], the system named is Jurkat. The assay is described as follows: antigen receptor-induced NF-kB inhibitors, dose response, Jurkat, luciferase reporter, luminescence, B- and T-cell (AID 489004).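 Note: NF-kB luciferase reporter Jurkat cells stimulated with PMA plus ionomycin.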 The class given is functional, cell-based. The conditions noted are these: Homo sapiens. For orientation: Reporter assays use an easily measured gene product as a stand-in for the process of interest.

Assay [12] is described as follows: cytotoxicity in HEK-293T NF-kB-Luc cells, dose response, cytotoxicity control for B/T-cell NF-kB inhibitor project, cell-based, uHTS hits (AID 489019).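 Note: IC50 reflects cytotoxicity as loss of cell viability.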 The format is functional.
In another assay the test system is INS1. Kind of assay: beta cell apoptosis inhibitors, cytokine rescue, dose response, luminescence, retest (AID 449756).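 Note: cell death triggered by IL-1 beta plus TNF-alpha plus IFN-gamma mixture; protective hits raise ATP signal compared with cytokine alone wells.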 The class given is functional, cell-based. Particulars: Rattus norvegicus.
The target of assay [13] is T1, Mannose-6-phosphate isomerase (Homo sapiens, UniProt P34949).
T1 sequence (P34949 whole entry): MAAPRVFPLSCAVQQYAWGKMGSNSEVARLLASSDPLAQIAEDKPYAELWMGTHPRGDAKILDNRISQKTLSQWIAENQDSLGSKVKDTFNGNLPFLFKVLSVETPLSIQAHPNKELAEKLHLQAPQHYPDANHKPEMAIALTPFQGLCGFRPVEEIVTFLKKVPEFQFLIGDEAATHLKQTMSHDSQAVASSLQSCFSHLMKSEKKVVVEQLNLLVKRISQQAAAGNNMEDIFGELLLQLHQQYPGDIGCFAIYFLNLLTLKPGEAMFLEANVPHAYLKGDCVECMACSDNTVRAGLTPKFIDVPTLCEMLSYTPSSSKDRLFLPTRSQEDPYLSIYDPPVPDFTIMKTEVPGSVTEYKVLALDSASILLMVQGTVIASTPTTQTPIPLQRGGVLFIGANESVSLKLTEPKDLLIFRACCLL
Kind of assay: inhibitors of human PMI, primary screen, biochemical, fluorescence intensity, coupled assay (AID 1209).

For assay [14], the target named is T1, Mannose-6-phosphate isomerase. The assay is described as follows: PMI enzyme inhibitors, confirmation, biochemical, fluorescence intensity (AID 1535).
The target of assay [15] is DNA dC->dU-editing enzyme APOBEC-3A (Homo sapiens, UniProt P31941). Kind of assay: APOBEC3A DNA deaminase inhibitors, dose response, biochemical (AID 504722). The class given is functional.
DNA dC->dU-editing enzyme APOBEC-3A, sequence (P31941 whole entry): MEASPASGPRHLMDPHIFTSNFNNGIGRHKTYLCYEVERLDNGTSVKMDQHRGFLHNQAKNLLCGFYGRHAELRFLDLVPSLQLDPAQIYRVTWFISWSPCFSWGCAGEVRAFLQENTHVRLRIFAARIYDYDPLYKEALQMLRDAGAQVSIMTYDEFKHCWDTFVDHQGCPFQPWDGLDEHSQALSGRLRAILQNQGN
The target of a further assay is Phosphomannomutase 2 (Homo sapiens, UniProt O15305). The assay is described as follows: Counter screen SAR assay for PMM2 inhibitors via a fluorescence intensity assay. [Related pubchem assays (depositor defined):AID1545, AID1574]. (In general: Counterscreens check selectivity or assay interference.)
Phosphomannomutase 2, sequence (O15305 whole entry): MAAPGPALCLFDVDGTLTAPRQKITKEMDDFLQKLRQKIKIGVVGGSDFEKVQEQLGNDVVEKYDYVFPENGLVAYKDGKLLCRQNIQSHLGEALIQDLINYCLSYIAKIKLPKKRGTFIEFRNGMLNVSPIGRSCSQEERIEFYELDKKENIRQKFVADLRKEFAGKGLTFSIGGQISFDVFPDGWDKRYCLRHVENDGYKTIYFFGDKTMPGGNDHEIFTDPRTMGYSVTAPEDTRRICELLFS
Assay [16] addresses DNA dC->dU-editing enzyme APOBEC-3G (Homo sapiens, UniProt Q9HC16). Kind of assay: Dose Response confirmation of small molecule APOBEC3G DNA Deaminase Inhibitors via a fluorescence-based single-stranded DNA deaminase assay. [Related pubchem assays (depositor defined):AID493012, AID493028]. The format is functional.
For assay [17], the target named is Nuclear receptor ROR-gamma (Homo sapiens, UniProt P51449). The assay is described as follows: ROR modulator nuclear receptor reporter panel, late-stage follow-up, ROR modulator project, cell-based, luciferase reporter, panel member RORG (AID 2117).
Nuclear receptor ROR-gamma, sequence (P51449 whole entry): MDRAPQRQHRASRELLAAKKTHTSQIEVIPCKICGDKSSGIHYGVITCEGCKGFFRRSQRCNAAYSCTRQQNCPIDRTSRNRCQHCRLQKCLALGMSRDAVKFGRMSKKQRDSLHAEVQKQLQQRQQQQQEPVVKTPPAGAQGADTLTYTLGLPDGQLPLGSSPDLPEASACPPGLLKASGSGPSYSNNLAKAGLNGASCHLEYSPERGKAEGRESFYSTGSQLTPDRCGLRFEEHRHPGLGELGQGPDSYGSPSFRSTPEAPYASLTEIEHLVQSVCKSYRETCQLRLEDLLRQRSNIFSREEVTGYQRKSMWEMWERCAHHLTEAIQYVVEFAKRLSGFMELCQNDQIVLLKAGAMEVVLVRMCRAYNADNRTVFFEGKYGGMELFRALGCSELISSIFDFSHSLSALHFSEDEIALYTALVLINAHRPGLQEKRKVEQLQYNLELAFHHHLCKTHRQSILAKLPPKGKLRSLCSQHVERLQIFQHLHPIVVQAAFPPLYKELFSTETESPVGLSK
In assay [18] the target is Nuclear receptor ROR-alpha (Homo sapiens, UniProt P35398). Kind of assay: ROR modulator nuclear receptor reporter panel, late-stage follow-up, ROR modulator project, cell-based, luciferase reporter, panel member RORA (AID 2117).
Nuclear receptor ROR-alpha, sequence (P35398 whole entry): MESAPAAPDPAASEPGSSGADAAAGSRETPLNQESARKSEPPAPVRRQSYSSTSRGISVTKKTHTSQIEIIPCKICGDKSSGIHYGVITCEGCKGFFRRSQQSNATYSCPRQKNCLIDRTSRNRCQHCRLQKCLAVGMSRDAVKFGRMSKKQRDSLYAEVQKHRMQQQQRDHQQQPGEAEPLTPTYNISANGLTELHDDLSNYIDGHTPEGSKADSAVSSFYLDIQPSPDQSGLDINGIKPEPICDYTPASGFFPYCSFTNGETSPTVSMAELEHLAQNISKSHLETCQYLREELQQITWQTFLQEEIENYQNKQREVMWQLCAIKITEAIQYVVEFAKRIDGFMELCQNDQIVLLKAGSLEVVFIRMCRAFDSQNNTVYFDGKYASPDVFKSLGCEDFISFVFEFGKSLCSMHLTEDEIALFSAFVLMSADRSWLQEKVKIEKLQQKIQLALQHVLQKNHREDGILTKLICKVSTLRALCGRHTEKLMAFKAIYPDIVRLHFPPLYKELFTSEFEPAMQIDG
The next assay deals with Phospholipase A2 (Homo sapiens, UniProt P04054). The assay is described as follows: PLA2 enzyme inhibitors, dose response, counter-screen for ATG4B inhibitor project, biochemical, set 2 (AID 588586). The class given is functional.
Phospholipase A2, sequence (P04054 whole entry): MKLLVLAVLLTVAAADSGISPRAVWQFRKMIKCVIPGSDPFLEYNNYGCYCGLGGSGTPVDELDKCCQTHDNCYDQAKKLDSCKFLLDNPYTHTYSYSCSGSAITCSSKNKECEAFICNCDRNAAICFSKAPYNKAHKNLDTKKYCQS
The next assay has as its target Cysteine protease ATG4B (Homo sapiens, UniProt Q9Y4P1). Kind of assay: ATG4B protease inhibitors, dose response, biochemical, fluorescence, set 2 (AID 588584). The format is functional.

Cysteine protease ATG4B, sequence (Q9Y4P1 whole entry): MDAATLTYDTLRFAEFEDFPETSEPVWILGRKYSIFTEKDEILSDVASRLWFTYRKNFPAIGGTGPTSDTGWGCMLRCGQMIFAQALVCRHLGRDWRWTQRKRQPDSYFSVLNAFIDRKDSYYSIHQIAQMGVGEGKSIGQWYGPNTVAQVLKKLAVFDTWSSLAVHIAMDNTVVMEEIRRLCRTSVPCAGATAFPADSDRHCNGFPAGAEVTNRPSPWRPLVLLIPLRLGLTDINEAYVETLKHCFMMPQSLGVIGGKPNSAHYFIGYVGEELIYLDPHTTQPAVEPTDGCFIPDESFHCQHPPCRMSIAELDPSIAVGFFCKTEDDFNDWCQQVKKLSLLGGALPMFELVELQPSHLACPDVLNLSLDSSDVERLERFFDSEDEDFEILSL
DNA dC->dU-editing enzyme APOBEC-3G, sequence (Q9HC16 whole entry): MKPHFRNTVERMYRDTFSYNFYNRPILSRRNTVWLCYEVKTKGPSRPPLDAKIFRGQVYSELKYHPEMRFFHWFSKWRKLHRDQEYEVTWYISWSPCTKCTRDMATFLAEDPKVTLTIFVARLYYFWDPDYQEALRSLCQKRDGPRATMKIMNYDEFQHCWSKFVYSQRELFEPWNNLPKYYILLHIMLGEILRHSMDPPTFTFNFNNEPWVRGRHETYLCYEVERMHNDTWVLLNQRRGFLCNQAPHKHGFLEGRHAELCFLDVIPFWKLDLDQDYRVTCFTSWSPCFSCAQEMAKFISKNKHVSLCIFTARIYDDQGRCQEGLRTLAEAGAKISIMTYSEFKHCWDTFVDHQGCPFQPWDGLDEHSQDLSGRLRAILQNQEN

By IC50 is commonly meant the concentration needed to halve the response being measured. On to `O=C(Nc1cccc2ncccc12)c1ccc([N+](=O)[O-])o1`, for which the figures for the IC50 with HEK293 [1], with Jurkat [2] and with HEK293 [3] were 69.4 µM (inactive), 21.8 µM (inactive) and 23.4 µM (inactive), respectively.

In the case of `COc1ccc(OCC(O)Cn2c(=N)n(CCN3CCCCC3)c3ccccc32)cc1` (stereo not drawn), the IC50 in [4] was 2.41 µM (active); in assay [5], 4.23 µM (active).

The term EC50 denotes the concentration that produces a half-maximal response. A word on the AC50: it is the midpoint of the concentration-response curve, whichever way the signal moves. `O=C(Nc1ccc(C(F)(F)F)cc1)N1CCN(c2ccnc3cc(Cl)ccc23)CC1`: the EC50 is 3.22 µM (active) in assay [6] and > 60 µM (not active) in [7]. Besides, the AC50 in the assay on Candida albicans [8] is 9.05 µM (active); in the assay with Candida albicans [9], 4.73 µM (active); in the assay on Candida albicans [10] it was 0.404 µM (active); in the assay on NIH3T3, 7.27 µM (active).

`Cc1ccc(NC(=O)COc2ccc(N(C)C(=O)C(C)(C)C)cc2)cc1S(=O)(=O)N1CCCCC1`: the results for the IC50 (in the assay on Jurkat [11]; in assay [12]) were 8.2 µM (active) and > 80 µM (inactive), respectively. The AC50 in the assay on INS1 is 5.61 µM (active).

Take `S=c1[nH]nc(C2COc3ccccc3O2)[nH]1` (stereo not drawn): the IC50 in [13] is 7.29 µM (active); in assay [14] it was 3.89 µM (active); in [15], > 100 µM (inactive); on Phosphomannomutase 2, > 100 µM (inactive); in assay [16], 4.34 µM (active).

For the compound `O=S(=O)(Nc1ccc(C(O)(C(F)(F)F)C(F)(F)F)cc1)c1cccc2cccnc12`, the IC50 in assay [17] and in assay [18] was > 20 µM (inactive) each time.

Consider `O=C(NCc1cccc(C(F)(F)F)c1)C1CC(c2c(Cl)cccc2Cl)=NO1` (stereo not drawn), for which the IC50 is 46.4 µM (inactive) on Phospholipase A2 and > 80 µM (inactive) at Cysteine protease ATG4B.
